What was measured:
[1] = biological target: T1, small-conductance Ca2+-activated K+ channel, subtype 3 (SK3) (Homo sapiens, UniProt Q9UGI6); test: Whole-cell patch-clamp recording of SK3 current in HEK293 cells stably expressing hSK3; type: cell-based; conditions: baseline current at -20 mV, 300 nM free Ca2+
T1 construct: expressed in transfected cells; host or cells: HEK293 cells stably transfected with pNS3_hSK3
Method: The ionic current through small-conductance Ca^2+-activated K^+ channels (SK channels, subtype 3) is recorded using the whole-cell configuration of the patch-clamp technique.
The small-conductance Ca^2+-activated K^+ channel, subtype 3 (SK3) was cloned from human skeletal muscle and stably expressed in HEK293 cells.
Human SK3 (hSK3) was sub-cloned into the expression vector pNS3n, a customized vector derived from pcDNA3 (InVitrogen) to give the plasmid construct pNS3_hSK3. HEK293 tissue culture cells were grown in DMEM (Dulbecco's Modified Eagle Medium) supplemented with 10% FCS (foetal calf serum) at 37° C. in 5% CO2. […]
Experiments are carried out on one of several patch-clamp set-ups. […] Data are stored directly on the hard-disk and analysed by IGOR software (Wavemetrics, Lake Oswega, Oreg., USA).
The whole-cell configuration of the patch-clamp technique is applied. […] Cell capacitance is electronically compensated and the resistance between the pipette and the cell interior (the series resistance, Rs) is measured and compensated for. […]
The intracellular (pipette) solution has the following composition (in mM): 105 KCl, 45 KOH, 10 EGTA, 1.21 MgCl2, 7.63 CaCl2, and 10 HEPES (pH=7.2 with HCl). The calculated free concentration of Ca^2+ in this solution is 300 nM and that of Mg^2+ is 1 mM. […]
Active compounds are quantified by calculating the change in baseline current at −20 mV. […]

| SMILES | SC100 (Stimulating Concentration required for increasing the baseline current by 100%) [1] [µM] | melting point [°C] |
| --- | --- | --- |
| Cc1cc(C)n(-c2nc(NC3CCCCC3)c3ccccc3n2)n1 [Compound A8, Cyclohexyl-[2-(3,5-dimethyl-pyrazol-1-yl)-quinazolin-4-yl]-amine] | 0.035 |  |
| Cc1cc(C)n(-c2nc(Nc3ccccc3)c3ccccc3n2)n1 [Compound B1, [2-(3,5-Dimethyl-pyrazol-1-yl)-quinazolin-4-yl]-phenyl-amine] |  | 262.4 to 265.3 |

From US8252806B2, “Potassium channel modulating agents and their medical use” (Neurosearch A/S, priority 2005, dated 2012)
